Like-named read-outs stand apart in the source and are kept apart here.
Tests used:
[1] = test system: H1N1 (influenza A/New Caledonia/20/99); assay: Antiviral effect on A549 cells infected with H1N1 (MUNANA neuraminidase readout); format: cell-based; settings: H1N1 A/New Caledonia/20/99 at MOI 0.1, 48 h post-infection, MUNANA fluorescence
Description: The antiviral effect of the compounds of the invention have been tested on A549 cell lines infected with H1N1 (influenza A/New Caledonia/20/99).
Human A549 cells (80,000 cells/well in a 96 well plate) were treated with a range of concentration of test compounds and immediately infected by H1N1 A/New Caledonia/20/99 virus (clinical isolate) at MOI of 0.1 in DMEM/1% Penicillin/streptomycin supplemented with 0.25 μg/ml TPCK trypsin (Sigma) and incubated at 37° C. in 5% CO2. 48 h post-infection, supernatants (25 μl) were collected and transferred into a 96-well black flat-bottom plate, mixed with 25 μl PBS with Ca++/Mg++(Thermo Fisher) and 50 μl of 2′-(4-Methylumbelliferyl)-α-D-N-acetylneuraminic acid sodium salt hydrate stock-solution (20 μM, MUNANA, Sigma). Plates were incubated 1 h at 37° C. and reaction is stopped by adding 100 μl of Stop Solution (glycine 0.1 M pH10.7/25% ethanol). The amount of fluorescent product released by MUNANA hydrolysis (4-MU) was measured in a Tecan spectrophotometer with excitation and emission wavelengths of 365 and 450 nm respectively.

NFκB = NFκB reporter assay (NanoLuciferase) in A549 cells, TNFα stimulation; format: cell-based; settings: Homo sapiens, 4 ng/ml TNFα, 6 hours
Text: Compounds of the present invention have been tested for their capacity to inhibit NFκB.
The NFκB reporter construct was made by cloning 5 NFκB responsive elements upstream of a NanoLuciferase reporter gene flanked by AAVS1 genomic sequences.
NFκB Responsive element fused with NanoLuciferase and SV40 late Poly(A) signal was amplified from pNL3.2-NFκB-Nluc (Promega) using NFKB-NLUC-F and NFKB-NLUC-R primers and inserted by Infusion (TaKaRa) in AAVS1 SA-2A-puro-pA donor plasmid (Hockemeyer et al, Nat Biotechnol. 2009, 27, 851-7) digested by Sal1. pCRISPR AAVS1-T2 expressing a guide RNA (gRNA) to target human AAVS1 (T2 target sequence) was constructed by inserting AAVS1-T2A hybridized primers in pLentiCRISPR v2-blast (Sanjana et al, Nat Methods. 2014, 11, 783-4) digested by Bsmb1.
A549 cells were transfected by the plasmids and puromycine selected for 5 days (1 μg mL-1). Then clones were obtained by limiting dilution and selected to maximize TNFα dependent NFkB-NanoLuciferase induction.
The reporter cells were seeded on a 96-well plate for overnight with DMEM including 10% FBS. Test compounds were added at varying concentrations. The cells then were treated with 4 ng/ml TNFα (Peprotech, ref E251) in DMEM+10% FBS. NanoGlo luciferase assay (Promega) was carried out 6 hours later. Luminescence was measured using a Spark 20M spectrofluorimeter (Tecan). Values were normalized to the luminescence measured in untreated cells.

[2] = Influenza A virus, H1N1, A549, 48 h, read-out: IC50

Compound | IC50 [1, 2] [nM] | EC50 (NFκB) [nM] | IC50 ([1]; read-out: IC50) [nM] | IC50 ([1]; Influenza A virus, H1N1, A549, 48 h) [nM]
O=C(Nc1sc(Cl)c(C2CCc3ccccc3C2)c1C(=O)O)c1ccccc1 (stereo not shown) [#17] | 38.3 | 180 | – | –
O=C(Nc1scc(C2CCc3ccccc32)c1C(=O)O)c1ccccc1 (stereo not shown) [#19] | 67 | 200 | – | –
COCCCNc1ccc(C(=O)Nc2scc(C3CCc4ccccc43)c2C(=O)O)cc1 (stereo not shown) [#57] | 76 | 80 | – | –
CN1CCOc2cc(C(=O)Nc3scc(C4CCc5ccccc5C4)c3C(=O)O)ccc21 (stereo not shown) [#86] | 2 | 40 | – | –
COCCNc1cccc(C(=O)Nc2scc(C3CCc4ccccc4C3)c2C(=O)O)c1 (stereo not shown) [#94] | 2 | 90 | – | –
O=C(Nc1scc(C2CCCc3ccccc32)c1C(=O)O)c1ccccc1 (stereo not shown) [#124] | 237 | 910 | – | –
O=C(Nc1scc(C2CCc3ccccc3C2)c1C(=O)O)c1ccc(N2C[C@@H]3C[C@H]2CO3)cc1 (stereo partly shown) [#140] | 3.5 | 40 | – | –
O=C(Nc1scc(C2CCc3ccccc3C2)c1C(=O)O)c1ccc(F)cc1 (stereo not shown) [#151] | – | 90 | 2 | –
O=C(Nc1scc(C2CCc3ccccc3C2)c1C(=O)O)c1ccc(OC(F)F)cc1 (stereo not shown) [#152] | – | 160 | 2 | –
COc1ccc(C(=O)Nc2scc(C3CCc4ccccc4C3)c2C(=O)O)cc1F (stereo not shown) [#162] | 4 | 200 | – | –
CC(C)Oc1ccc(C(=O)Nc2scc(C3CCc4ccccc4C3)c2C(=O)O)cc1 (stereo not shown) [#180] | 0.3 | 50 | – | –
O=C(O)c1c(C2CCc3ccccc3C2)csc1NC(=O)C12CC(C1)C2 (stereo not shown) [#192] | 347 | – | – | –
O=C(O)c1c(C2CCc3ccccc3C2)csc1NC(=O)C12CC(F)(C1)C2 (stereo not shown) [#193] | 315 | – | – | –
N#Cc1ccc(C(=O)Nc2scc(C3CCc4ccccc4C3)c2C(=O)O)cc1 (stereo not shown) [Compound #183, 2-[(4-Cyanobenzoyl)amino]-4-tetralin-2-yl-thiophene-3-carboxylic acid] | – | – | – | 462

From patent US11767316B2, “Non-fused thiophene derivatives and their uses” (ENYO PHARMA, priority 2018, dated 2023)
